{"source": "patent US8697747B2", "about": "“Enhancing coagulation or reducing fibrinolysis” (THe UAB Research Foundation, priority 2009, dated 2014)", "key": {"[1]": {"system": "factor IX deficient plasma", "assay": "Thrombelastography, factor IX deficient plasma", "format": "biochemical, human", "conditions": "100 mmol CORM-2 vs control; FIX deficient plasma, 5 individuals", "experimental": "Plasma deficient (<1% normal activity) in factor VIII (FVIII; 11 individuals), factor IX (FIX; 5 individuals), or factor VII (FVII; 4 individuals) was obtained from anonymous donors (George King Bio-Medical, Overland Park, Kans.) and was anticoagulated with sodium citrate. The final volume for all subsequently described plasma sample mixtures was […]. Sample composition consisted of […] of plasma, […] of tissue factor (0.1% final concentration in 0.9% NaCl; Diagnostica Stago, Asnieres, France), 3.6 mL of dimethyl sulfoxide (DMSO) or DMSO with CORM-2 ([…]; Sigma-Aldrich, St. Louis, Mo.), and 20 mL of […] CaCl2. […] (Motterlini et al. 2005). While CORM-2 decays slowly in DMSO, DMSO was added to the dry compound just prior to placement into the plasma mixture.\nPlasma sample mixtures were placed in a disposable cup in a computer-controlled THROMBELASTOGRAPH® hemostasis system (Model 5000; Haemoscope Corp., Niles, Ill.), with addition of CaCl2 as the last step to initiate clotting. Data were collected until clot strength stabilized (maximum amplitude).\nStatistical analyses. […] A paired student's t-test was used to analyze the effects of CORM-2 exposure in FVIII deficient individuals. The results of the FIX and FVII deficient groups were presented but not statistically analyzed secondary to the small number of individuals in each cohort. […] Statistical analyses and graphical representation of the data were generated with commercially available software (SigmaPlot 11.0; Systat Software Inc., San Jose, Calif.; CorelDRAW 12.0; Corel Corp., Ottawa, Ontario, Canada). A P value of less than 0.05 was considered significant."}, "FXIII deficient plasma": {"system": "FXIII deficient plasma", "assay": "CLSM thrombelastography with tPA, FXIII deficient plasma", "format": "biochemical, human", "conditions": "100 μM CORM-2, tPA 100 IU/mL, median, n=8", "experimental": "Pooled normal plasma (George King Bio-Medical, Overland Park, Kans.) anticoagulated with sodium citrate was utilized for experimentation. […] Factor XIII (FXIII) deficient plasma anticoagulated with sodium citrate was also obtained from the same vendor.\nPlasma Sample Composition. The final volume for all subsequently described plasma sample mixtures was 359.4 μL. Sample composition consisted of 316 μL of plasma; 10 μL of tissue factor (0.1% final concentration in 0.9% NaCl; Diagnostica Stago, Asnieres, France), 3.6 μL of dimethyl sulfoxide (DMSO) or DMSO with CORM-2 (Sigma-Aldrich, St. Louis, Mo.) or DMSO with inactivated CORM-2 (iCORM-2), 10 μL of tissue-type plasminogen activator (tPA, 580 U/μg, Genentech, Inc., San Francisco, Calif.) diluted with 10 mM potassium phosphate buffer (pH 7.4) for a final activity of 100 IU/mL, and 20 μL of 200 mM CaCl2. […] This concentration of CORM-2 was chosen because the concentration of CO released would be expected to be in the mid to lower ranges used in previously reported ex vivo, in vitro, and cell-based experiments (Motterlini et al. 2002; Megias et al. 2007; Chlopicki et al. 2006; Dong et al. 2008). […] (Motterlini et al. 2005). While CORM-2 decays slowly in DMSO, DMSO was added to the dry compound just prior to placement into the plasma mixture. The specific series of experiments are subsequently presented.\nAssessment of the Effects of CORM-2 on CLSM Parameters in FXIII, PAI-1, TAFI and α2-antiplasmin Deficient Plasmas. These experiments were performed to elucidate the roles played by antifibrinolytic enzymes during CORM-2 mediated modulation of fibrinolysis. Samples of the various deficient plasmas were exposed to 0 or 100 μM of CORM-2 (n=8 per condition). Samples underwent CLSM analyses as subsequently described.\nClot Lifespan Model Analyses. As described in Example 1, plasma sample mixtures were placed in a disposable cup in a computer-controlled THROMBELASTOGRAPH® hemostasis system (Model 5000, Haemoscope Corp., Niles, Ill.), with addition of CaCl2 as the last step to initiate clotting. Data were collected until clot lysis time occurred. […] As this model involves complete fibrinolysis, TTG is equivalent to ACL, so ACL was not presented as it provides no additional information.\nStatistical Analyses. Data are presented as median (1st, 3rd quartiles). […] Nonlinear and linear analyses and curve fitting of the various CORM-2 concentrations effects on CLSM variables were performed with commercially available software (SigmaPlot 11.0, Systat Software, Inc., San Jose, Calif.). Analyses of the effects of CORM-2 and iCORM-2 on CLSM variables in normal plasma were conducted with Kruskal-Wallis one way analysis of variance on ranks, whereas Mann-Whitney rank sum tests were used to assess the effects of CORM-2 on CLSM variables in the various immunodepleted/congenitally deficient plasma types (SigmaStat 3.1, Systat Software, Inc., San Jose, Calif.). Graphical representation of the data was generated with commercially available software (SigmaPlot 11.0, Systat Software, Inc., San Jose, Calif.; CorelDRAW 12.0, Corel Corporation, Ottawa, Ontario, Canada; Origin 7.5, OriginLab Corp., Northampton, Mass.). A P value of <0.05 was considered significant."}}}
{"smiles": "[C-]#[O+].[C-]#[O+].[C-]#[O+].[C-]#[O+].[C-]#[O+].[C-]#[O+].[Cl][Ru][Cl].[Cl][Ru][Cl]", "note": "[CORM-2, tricarbonyldichlororuthenium (II) dimer]", "values": [{"measurement": "effect on MRTG (speed of clot formation)", "setting": "[1]", "value": "four of five individuals had an increase in the speed of clot formation"}, {"measurement": "effect on TMRTG", "setting": "[1]", "value": "decreased the TMRTG value of all five individual plasma samples tested"}, {"measurement": "effect on TTG", "setting": "[1]", "value": "All individual plasma samples demonstrated an increase in TTG"}, {"measurement": "CGT (clot growth time)", "setting": "FXIII deficient plasma", "value": 820, "unit": "s"}, {"measurement": "CLS (clot lifespan)", "setting": "FXIII deficient plasma", "value": 2258, "unit": "s"}, {"measurement": "CLT (clot lysis time)", "setting": "FXIII deficient plasma", "value": 1460, "unit": "s"}, {"measurement": "MRL (maximum rate of lysis)", "setting": "FXIII deficient plasma", "value": "−1.0 -dynes/cm^2/sec"}, {"measurement": "MRTG (maximum rate of thrombus generation)", "setting": "FXIII deficient plasma", "value": 5.8, "unit": "dynes/cm^2/sec"}, {"measurement": "TMRL (time to maximum rate of lysis)", "setting": "FXIII deficient plasma", "value": 855, "unit": "s"}, {"measurement": "TMRTG (time to maximum rate of thrombus generation)", "setting": "FXIII deficient plasma", "value": 195, "unit": "s"}, {"measurement": "TTG (total thrombus generation)", "setting": "FXIII deficient plasma", "value": 160, "unit": "dynes/cm^2"}]}
